From patent US10897891B2, “Compositions and methods for prolonged cell storage” (Board of Regents, The University of Texas System, priority 2015, dated 2021)

Assays:
[1] = primates, for 11 weeks; cited from earlier work
platelets = assay: Hydrogen peroxide induced platelet aggregation (platelet 'aging', Experiment B); format: cell-based, human; conditions: 2% PEG-400 in PBS, 1 hr room temperature
Method: Platelet aggregation using epinephrine. Ten ml of 24 hr old platelet residual was derived from one platelet unit and split into two 5 ml aliquots in 50 ml tubes. One sample received 10% phosphate buffered saline (PBS) and one 10% PBS containing PEG400 such that the final PEG concentration was 2%. These samples were placed on a flat-bed rotator with a 1 inch stroke, at 70 cycles per min, at 5° C. for 7 days. 100 ul of these platelet suspensions were added to wells of a 96 well U bottom plate. Epinephrine 0.1 mg/ml (Pharmaceutical NDC 0409-4921-34-44-048-DK) was diluted with PBS and 100 ul was added to test wells to give a finial concentration of 10 mcg/ml. The plate was rotated overnight to allow aggregation. The extent of aggregation was read using an ELISA plate reader (Molecular Devises, Vmax) at 690 nm wavelength. Platelets, with and without PEG, were also aggregated by the addition of 10% H2O2. Hydrogen peroxide is not an agonist for the platelet receptor; however exposure to hydrogen peroxide mimics the platelet storage lesion though membrane ageing. In this study, the inventors tested 2 day old residual platelets form one donor unit by splitting the material in to a 24 well cluster plate. […] Table 3 presents additional cryoprotective agents scored for the effect on microscopic degranulation (20× high contrast lighting as above). […]

Q: With Polyethylene glycol [PEG-400] as the substance, how does the tolerated level [1] read?
A: The tolerated level was 0.4 % of body weight.

Q: And the “platelet aggregation after 10% hydrogen peroxide vs PBS control” value (platelets)?
A: Its value is “less aggregation of the platelets”.
